These compounds were tested against human VR1 (Homo sapiens, UniProt Q8NER1) (assay: Acid stimulation assay (acid-induced intracellular calcium change, FDSS 6000)). Conditions: final assay buffer pH5.8, 15 min pre-incubation, read-out: IC50 (nM) Low pH.
Type: cell-based
Source text: VR1 antagonistic activity can be determined by the Ca^2+ imaging assay using human VR1 highly expressing cells. The cells that highly express human VR1 receptors are obtainable from several different conventional methods. The one standard method is cloning from human Dorsal Root Ganglion (DRG) or kidney according to the methods such as described in the journal article; Nature, 389, pp 816-824, 1997. Alternatively VR1 receptors highly expressing human keratinocytes are also known and published in the journal article (Biochemical and Biophysical Research Communications, 291, pp 124-129, 2002). […] Furthermore, the method to up regulate human VR1 gene, which is usually a silent gene or don't produce detectable level of VR1 receptors, is also available to obtain propriety cells. Such genetic modification method was described in detail; Nat. Biotechnol., 19, pp 440-445, 2001.
The cells that express human VR1 receptors were maintained in culture flask at 37° C. in an environment containing 5% CO2 until use in the assay. The intracellular Ca^2+ imaging assay to determine VR1 antagonistic activities were done by following procedures.
The culture medium was removed from the flask and fura-2/AM fluorescent calcium indicator was added to the flask at a concentration of 5 μM in the medium. The flask was placed in CO2 incubator and incubated for 1 hour. Then the cells expressing the human VR1 receptors were detached from the flask follow by washing with phosphate buffer saline, PBS(−) and re-suspended in assay buffer. The 80 tit of aliquot of cell suspension (3.75×10^5 cells/ml) was added to the assay plate and the cells were spun down by centrifuge (950 rpm, 20° C., 3 minutes).
(§1) The Acid-induced changes in the intracellular calcium concentration were monitored using FDSS 6000 (Hamamatsu Photonics, Japan), a fluorometric imaging system. The cell suspension in resting buffer (HBSS supplemented with 10 mM HEPES, pH 7.4) were pre-incubated with varying concentrations of the test compounds or resting buffer (buffer control) for 15 minutes at room temperature under the dark condition. The cells were automatically added the stimulating solution (HBSS supplemented with MES, final assay buffer pH5.8) by the FDSS 6000.
as §1, with “7.4) was” for “7.4) were”, “under” for “under the”, “dark conditions.” for “dark condition.”, “added to” for “added”

Sequence of human VR1 (Q8NER1 whole entry): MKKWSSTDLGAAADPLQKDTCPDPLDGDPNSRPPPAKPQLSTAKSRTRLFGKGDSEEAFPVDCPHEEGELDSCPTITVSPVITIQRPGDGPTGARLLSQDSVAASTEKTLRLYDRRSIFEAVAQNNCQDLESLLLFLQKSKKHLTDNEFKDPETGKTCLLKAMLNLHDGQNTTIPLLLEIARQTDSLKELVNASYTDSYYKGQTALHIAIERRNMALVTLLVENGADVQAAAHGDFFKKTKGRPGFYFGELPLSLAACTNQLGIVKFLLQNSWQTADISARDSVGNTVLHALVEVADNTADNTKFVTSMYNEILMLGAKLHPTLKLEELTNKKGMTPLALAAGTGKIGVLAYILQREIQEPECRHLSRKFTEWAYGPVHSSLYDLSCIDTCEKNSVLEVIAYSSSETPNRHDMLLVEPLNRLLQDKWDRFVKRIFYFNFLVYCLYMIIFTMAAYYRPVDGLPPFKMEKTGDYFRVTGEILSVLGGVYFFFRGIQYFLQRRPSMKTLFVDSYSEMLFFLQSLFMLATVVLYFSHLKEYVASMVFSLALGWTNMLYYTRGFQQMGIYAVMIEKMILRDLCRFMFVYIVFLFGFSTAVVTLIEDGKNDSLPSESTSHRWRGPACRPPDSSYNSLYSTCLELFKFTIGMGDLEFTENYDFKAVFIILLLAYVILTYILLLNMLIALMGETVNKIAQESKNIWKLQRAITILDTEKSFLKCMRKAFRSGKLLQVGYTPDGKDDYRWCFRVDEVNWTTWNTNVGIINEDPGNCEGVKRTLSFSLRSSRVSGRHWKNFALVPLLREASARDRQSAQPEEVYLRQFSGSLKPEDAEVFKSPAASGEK

Row | SMILES | IC50
1 | CCOC(=O)N1CCN(c2nc(C(F)(F)F)nc3ccc(C(=O)N[C@H](C)c4cc(C)c(NS(C)(=O)=O)cc4F)cc23)CC1 [Example 96, 4-{6-[(R)-1-(2-FLUORO-4-METHANESULFONYLAMINO-5-METHYL-PHENYL)-ETHYLCARBAMOYL]-2-TRIFLUOROMETHYL-QUINAZOLIN-4-YL}-PIPERAZINE-1-CARBOXYLIC ACID ETHYL ESTER] | 41 nM
2 | Cc1cc([C@@H](C)NC(=O)c2ccc3nc(C(F)(F)F)cc(NC4CCCCC4)c3c2)c(F)cc1NS(C)(=O)=O [Example 97, 4-CYCLOHEXYLAMINO-2-TRIFLUOROMETHYLQUINOLINE-6-CARBOXYLIC ACID [(R)-1-(2-FLUORO-4-METHANESULFONYLAMINO-5-METHYLPHENYL)ETHYL]AMIDE] | 41 nM
3 | Cc1cc([C@@H](C)NC(=O)c2ccc3nc(C(F)(F)F)cc(N4CCC(CO)CC4)c3c2)c(F)cc1NS(C)(=O)=O [Example 99, 4-(4-HYDROXYMETHYL-PIPERIDIN-1-YL)-2-TRIFLUOROMETHYL-QUINOLINE-6-CARBOXYLIC ACID [(R)-1-(2-FLUORO-4-METHANESULFONYLAMINO-5-METHYL-PHENYL)-ETHYL]-AMIDE] | 630 nM
4 | Cc1cc([C@@H](C)NC(=O)c2ccc3cc(C(C)(O)C(F)(F)F)ccc3c2)c(F)cc1NS(C)(=O)=O (stereo partly drawn) [Example 101] | 41 nM
5 | Cc1cc([C@@H](C)NC(=O)c2ccc3cc(-n4cccn4)ccc3c2)c(F)cc1NS(C)(=O)=O [Example 105, 6-PYRAZOL-1-YL-NAPHTHALENE-2-CARBOXYLIC ACID [(R)-1-(2-FLUORO-4-METHANESULFONYLAMINO-5-METHYL-PHENYL)-ETHYL]-AMIDE] | 147 nM
6 | COC1CCN(c2ccc3cc(C(=O)N[C@H](C)c4cc(C)c(NS(C)(=O)=O)cc4F)ccc3n2)CC1 [Example 107] | 337 nM
7 | Cc1cc([C@@H](C)NC(=O)c2ccc3nc(N4CCC(F)(F)CC4)ccc3c2)c(F)cc1NS(C)(=O)=O [Example 110, (R)-2-(4,4-DIFLUOROPIPERIDIN-1-YL)-N-(1-(2-FLUORO-5-METHYL-4-(METHYLSULFONAMIDO)PHENYL)ETHYL)QUINOLINE-6-CARBOXAMIDE] | 94 nM
8 | Cc1cc([C@@H](C)NC(=O)c2ccc3nc(N4CCC(C)(C)CC4)ccc3c2)c(F)cc1NS(C)(=O)=O [Example 113] | 149 nM

Stronger by IC50, values ahead:

Row | IC50 | SMILES
9 | 35 nM | Cc1cc([C@@H](C)NC(=O)c2ccc3nc(C(F)(F)F)cc(OC4CCOCC4)c3c2)c(F)cc1NS(C)(=O)=O [Example 94, 4-(TETRAHYDRO-PYRAN-4-YLOXY)-2-TRIFLUOROMETHYL-QUINOLINE-6CARBOXYLIC ACID [(R)-1-(2-FLUORO-4-METHANESULFONYLAMINO-5-METHYL-PHENYL)-ETHYL]-AMIDE]
10 | 33 nM | Cc1cc([C@@H](C)NC(=O)c2ccc3nc(C(F)(F)F)nc(N4CCOCC4)c3c2)c(F)cc1NS(C)(=O)=O [Example 112, 4-MORPHOLIN-4-YL-2-TRIFLUOROMETHYL-QUINAZOLINE-6-CARBOXYLIC ACID [(R)-1-(2-FLUORO-4-METHANESULFONYLAMINO-5-METHYL-PHENYL)-ETHYL]-AMIDE]
11 | 6 nM | Cc1cc([C@@H](C)NC(=O)c2ccc3nc(C(F)(F)F)nc(N4CCC(Cc5ccccc5)CC4)c3c2)c(F)cc1NS(C)(=O)=O [Example 106, 4-(4-BENZYL-PIPERIDIN-1-YL)-2-TRIFLUOROMETHYL-QUINAZOLINE-6-CARBOXYLIC ACID [(R)-1-(2-FLUORO-4-METHANESULFONYLAMINO-5-METHYL-PHENYL)-ETHYL]-AMIDE]
12 | 5 nM | Cc1cc([C@@H](C)NC(=O)c2ccc3nc(C4(C)CC4)ccc3c2)c(F)cc1NS(C)(=O)=O [Example 108, N-((1R)-1-{2-FLUORO-5-METHYL-4-[(METHYLSULFONYL)AMINO]PHENYL}ETHYL)-2-(1-METHYLCYCLOPROPYL)QUINOLINE-6-CARBOXAMIDE]

From patent US20120088746A1, “AMIDE DERIVATIVES AS ION-CHANNEL LIGANDS AND PHARMACEUTICAL COMPOSITIONS AND METHODS OF USING THE SAME” (PFIZER INC., priority 2006, published 2012)
